Where a name gives a salt, the structure may show the parent alone.
molecular target: ileal bile acid cotransporter (iBAT) (Homo sapiens (Human), UniProt Q12908); test: Human iBAT inhibition: [3H]-taurocholate uptake into HEK293 cells expressing human iBAT; type: cell-based; details: HEK293 cells transduced with human iBAT Bacmam virus, 90 minutes at ambient temperature, mean of at least 2 datapoints
Sequence (Q12908 whole entry): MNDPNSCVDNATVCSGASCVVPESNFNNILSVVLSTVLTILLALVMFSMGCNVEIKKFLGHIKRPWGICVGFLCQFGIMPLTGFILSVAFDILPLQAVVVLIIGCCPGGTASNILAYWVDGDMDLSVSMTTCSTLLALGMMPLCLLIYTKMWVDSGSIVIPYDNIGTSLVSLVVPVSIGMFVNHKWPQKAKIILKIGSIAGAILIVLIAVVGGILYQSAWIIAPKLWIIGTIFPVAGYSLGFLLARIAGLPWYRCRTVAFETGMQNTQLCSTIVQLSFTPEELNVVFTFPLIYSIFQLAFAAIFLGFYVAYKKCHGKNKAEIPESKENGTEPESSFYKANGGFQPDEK

**Q.** Which IC50 does the source give for `CCCC[C@]1(CC)CS(=O)(=O)c2cc(CN[C@@H](CC(=O)O)C(=O)O)c(OC)cc2[C@@H](c2ccccc2)N1` [Example 27, N-{[(3R,5R)-3-butyl-3-ethyl-7-(methyloxy)-1,1-dioxido-5-phenyl-2,3,4,5-tetrahydro-1,4-benzothiazepin-8-yl]methyl}-L-aspartic acid trifluoroacetate salt] here?
**A.** 0.047 µM

**Q.** Which IC50 does the source give for `CCCC[C@]1(CC)CS(=O)(=O)c2cc(C(=O)NCS(=O)(=O)O)c(OC)cc2[C@@H](c2ccccc2)N1` [Example 2, ({[(3R,5R)-3-butyl-3-ethyl-7-(methyloxy)-1,1-dioxido-5-phenyl-2,3,4,5-tetrahydro-1,4-benzothiazepin-8-yl]carbonyl}amino)methanesulfonic acid] here?
**A.** 0.011 µM

**Q.** `CCCC[C@]1(CC)CS(=O)(=O)c2cc(CNC(=O)CS(=O)(=O)O)c(OC)cc2[C@@H](c2ccccc2)N1` [Example 37, 2-({[(3R,5R)-3-butyl-3-ethyl-7-(methyloxy)-1,1-dioxido-5-phenyl-2,3,4,5-tetrahydro-1,4-benzothiazepin-8-yl]methyl}amino)-2-oxoethanesulfonic acid] was tested. Which IC50 did it give?
**A.** 0.009 µM

**Q.** Which IC50 does the source give for `CCCC[C@]1(CC)CS(=O)(=O)c2cc(CNC(CC(=O)O)CC(=O)O)c(OC)cc2[C@H](c2ccccc2)N1` [Example 43, 3-({[(3R,5S)-3-butyl-3-ethyl-7-(methyloxy)-1,1-dioxido-5-phenyl-2,3,4,5-tetrahydro-1,4-benzothiazepin-8-yl]methyl}amino)pentanedioic acid] here?
**A.** 7.68 µM

**Q.** How did the IC50 turn out when `CCCC[C@]1(CC)CS(=O)(=O)c2cc(CCC(=O)NCS(=O)(=O)O)c(OC)cc2[C@@H](c2ccccc2)N1` [Example 13, ({3-[(3R,5R)-3-butyl-3-ethyl-7-(methyloxy)-1,1-dioxido-5-phenyl-2,3,4,5-tetrahydro-1,4-benzothiazepin-8-yl]propanoyl}amino)methanesulfonic acid] was run?
**A.** 0.167 µM

**Q.** With `CCCC[C@]1(CC)CS(=O)(=O)c2cc(CNC(C)(C)C(=O)O)c(OC)cc2[C@@H](c2ccccc2)N1` [Example 32, N-{[(3R,5R)-3-butyl-3-ethyl-7-(methyloxy)-1,1-dioxido-5-phenyl-2,3,4,5-tetrahydro-1,4-benzothiazepin-8-yl]methyl}-2-methylalanine trifluoroacetate salt] as the compound, how does the IC50 read?
**A.** 0.19 µM

**Q.** Which IC50 does the source give for `CCCC[C@]1(CC)CS(=O)(=O)c2cc(C(CC(=O)O)CC(=O)O)c(OC)cc2[C@@H](c2ccccc2)N1` [Example 72, 3-[(3R,5R)-3-butyl-3-ethyl-7-(methyloxy)-1,1-dioxido-5-phenyl-2,3,4,5-tetrahydro-1,4-benzothiazepin-8-yl]pentanedioic acid] here?
**A.** > 3 µM

**Q.** How did the IC50 turn out when `CCCCC1(CCCC)CS(=O)(=O)c2cc(CNCC(=O)O)c(OC)cc2C(c2ccccc2)N1` (centres unmarked) [Example 66, N-{[3,3-dibutyl-7-(methyloxy)-1,1-dioxido-5-phenyl-2,3,4,5-tetrahydro-1,4-benzothiazepin-8-yl]methyl}glycine trifluoroacetate salt] was run?
**A.** 0.021 µM

**Q.** How did the IC50 turn out when `CCCC[C@]1(CC)CS(=O)(=O)c2cc(CNC(CC(=O)O)CC(=O)O)c(OC)cc2[C@@H](c2ccccc2)N1` [Example 26, 3-({[(3R,5R)-3-butyl-3-ethyl-7-(methyloxy)-1,1-dioxido-5-phenyl-2,3,4,5-tetrahydro-1,4-benzothiazepin-8-yl]methyl}amino)pentanedioic acid] was run?
**A.** 0.043 µM

**Q.** Which IC50 does the source give for `CCCC[C@]1(CC)CS(=O)(=O)c2cc(CNC(=O)CNCC(=O)O)c(OC)cc2[C@@H](c2ccccc2)N1` [Example 39, N-[2-({[(3R,5R)-3-butyl-3-ethyl-7-(methyloxy)-1,1-dioxido-5-phenyl-2,3,4,5-tetrahydro-1,4-benzothiazepin-8-yl]methyl}amino)-2-oxoethyl]glycine trifluoroacetate salt] here?
**A.** 0.619 µM

**Q.** `CCCC[C@]1(CC)CS(=O)(=O)c2cc(CN[C@@H](CCCCN(C)C)C(=O)O)c(OC)cc2[C@@H](c2ccccc2)N1` [Example 59, N^2-{[(3R,5R)-3-butyl-3-ethyl-7-(methyloxy)-1,1-dioxido-5-phenyl-2,3,4,5-tetrahydro-1,4-benzothiazepin-8-yl]methyl}-N^6,N^6-dimethyl-L-lysine ammonium salt] was tested. Which IC50 did it give?
**A.** 3.33 µM

**Q.** How did the IC50 turn out when `CCCCC1(CCCC)CS(=O)(=O)c2cc(CP(=O)(O)O)c(OC)cc2C(c2ccccc2)N1` (centres unmarked) [Example 67, {[3,3-dibutyl-7-(methyloxy)-1,1-dioxido-5-phenyl-2,3,4,5-tetrahydro-1,4-benzothiazepin-8-yl]methyl}phosphonic acid trifluoroacetate salt] was run?
**A.** 0.052 µM

**Q.** For `CCCC[C@]1(CC)CS(=O)(=O)c2cc(CNCCCC(=O)O)c(OC)cc2[C@@H](c2ccccc2)N1` [Example 30, 4-({[(3R,5R)-3-butyl-3-ethyl-7-(methyloxy)-1,1-dioxido-5-phenyl-2,3,4,5-tetrahydro-1,4-benzothiazepin-8-yl]methyl}amino)butanoic acid trifluoroacetate salt], which IC50 is on record?
**A.** 1.29 µM

**Q.** With `CCCC[C@]1(CC)CS(=O)(=O)c2cc(CP(=O)(O)O)c(OC)cc2[C@H](c2ccccc2)N1` [Example 45, {[(3R,5S)-3-butyl-3-ethyl-7-(methyloxy)-1,1-dioxido-5-phenyl-2,3,4,5-tetrahydro-1,4-benzothiazepin-8-yl]methyl}phosphonic acid trifluoroacetate salt] as the compound, how does the IC50 read?
**A.** 1.95 µM

**Q.** For `CCCC[C@]1(CC)CS(=O)(=O)c2cc(CP(=O)(O)O)c(OC)cc2[C@@H](c2ccccc2)N1O` [Example 54, {[(3R,5R)-3-butyl-3-ethyl-4-hydroxy-7-(methyloxy)-1,1-dioxido-5-phenyl-2,3,4,5-tetrahydro-1,4-benzothiazepin-8-yl]methyl}phosphonic acid], which IC50 is on record?
**A.** 0.124 µM

**Q.** With `CCCC[C@]1(CC)CS(=O)(=O)c2cc(CNCC(=O)O)c(N(C)C)cc2[C@@H](c2ccccc2)N1` [Example 68, N-{[(3R,5R)-3-butyl-7-(dimethylamino)-3-ethyl-1,1-dioxido-5-phenyl-2,3,4,5-tetrahydro-1,4-benzothiazepin-8-yl]methyl}glycine trifluoroacetate salt] as the compound, how does the IC50 read?
**A.** 0.001 µM

**Q.** Which IC50 does the source give for `CCCC[C@]1(CC)CS(=O)(=O)c2cc(CCC(=O)NO)c(OC)cc2[C@@H](c2ccccc2)N1` [Example 12, 3-[(3R,5R)-3-butyl-3-ethyl-7-(methyloxy)-1,1-dioxido-5-phenyl-2,3,4,5-tetrahydro-1,4-benzothiazepin-8-yl]-N-hydroxypropanamide] here?
**A.** 0.068 µM

**Q.** With `CCCC[C@]1(CC)CS(=O)(=O)c2cc(CNCCS(=O)(=O)O)c(OC)cc2[C@@H](c2ccccc2)N1` [Example 35, 2-({[(3R,5R)-3-butyl-3-ethyl-7-(methyloxy)-1,1-dioxido-5-phenyl-2,3,4,5-tetrahydro-1,4-benzothiazepin-8-yl]methyl}amino)ethanesulfonic acid ammonium salt] as the compound, how does the IC50 read?
**A.** 0.054 µM

**Q.** With `CCCC[C@]1(CC)CS(=O)(=O)c2cc(C(N)=O)c(OC)cc2[C@@H](c2ccccc2)N1` [Example 8, (3R,5R)-3-butyl-3-ethyl-7-(methyloxy)-5-phenyl-2,3,4,5-tetrahydro-1,4-benzothiazepine-8-carboxamide-1,1-dioxide] as the compound, how does the IC50 read?
**A.** 0.073 µM

**Q.** `CCCC[C@]1(CC)CS(=O)(=O)c2cc(CNCC(=O)O)c(OC)cc2[C@H](c2ccccc2)N1` [Example 44, N-{[(3R,5S)-3-butyl-3-ethyl-7-(methyloxy)-1,1-dioxido-5-phenyl-2,3,4,5-tetrahydro-1,4-benzothiazepin-8-yl]methyl}glycine trifluoroacetate salt] was tested. Which IC50 did it give?
**A.** 0.648 µM

Source: patent US9040518B2, “Chemical compounds” (GlaxoSmithKline LLC, priority 2010, dated 2015)
